5 molecules from patent US5696143A, “Benz [G] indazolyl derivatives for the treatment of inflammation” (priority 1994, dated 1997) can be followed below.

The structures appear in SMILES notation. Bounds are passed on as bounds.

One assay has as its target T1, Human COX II (Homo sapiens, UniProt P35354).
T1 construct: A 2.0 kb fragment containing the coding region of either human or murine COX-I or human or murine COX-II; made in house; host or cells: SF9 insect cells (recombinant baculovirus, transfer vector pVL1393)
T1 sequence (P35354 18-604): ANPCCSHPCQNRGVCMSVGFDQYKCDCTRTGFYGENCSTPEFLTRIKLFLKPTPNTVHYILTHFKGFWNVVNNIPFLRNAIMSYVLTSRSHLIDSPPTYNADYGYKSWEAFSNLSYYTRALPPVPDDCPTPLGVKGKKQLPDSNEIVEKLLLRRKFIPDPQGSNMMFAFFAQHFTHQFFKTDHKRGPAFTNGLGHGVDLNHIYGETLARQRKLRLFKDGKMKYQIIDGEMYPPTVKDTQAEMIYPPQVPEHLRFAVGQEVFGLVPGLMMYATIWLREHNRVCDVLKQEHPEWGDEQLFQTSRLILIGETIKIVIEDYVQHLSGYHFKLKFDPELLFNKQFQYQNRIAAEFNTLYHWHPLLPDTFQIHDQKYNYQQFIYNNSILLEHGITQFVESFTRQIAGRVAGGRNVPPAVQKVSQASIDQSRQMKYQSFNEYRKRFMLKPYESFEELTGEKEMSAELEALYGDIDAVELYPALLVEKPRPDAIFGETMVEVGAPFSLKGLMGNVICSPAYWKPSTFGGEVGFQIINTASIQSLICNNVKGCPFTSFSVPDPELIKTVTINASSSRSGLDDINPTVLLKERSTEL
In words: COX II activity in vitro (PGE2 formed, ELISA; recombinant enzyme, baculovirus/SF9 insect cell membranes). Type of assay: biochemical. The note with it: arachidonic acid 10 μM; 10-20 min pre-incubation; pH 8.0; read-out: Human COX II ID50. On the procedure:
(§1) Evaluation of COX I and COX II activity in vitro
(§2) The COX II inhibition activity of the compounds of this invention illustrated in the Examples was determined by the following methods.
(§3) a. Preparation of recombinant CQX baculoviruses
(§4) A 2.0 kb fragment containing the coding region of either human or murine COX-I or human or murine COX-II was cloned into a BamH1 site of the baculovirus transfer vector pVL1393 (Invitrogen) to generate the baculovirus transfer vectors for COX-I and COX-II in a manner similar to the method of D. R. O'Reilly et al (Baculovirus Expression Vectors: A Laboratory Manual (1992)). Recombinant baculoviruses were isolated by transfecting 4 μg of baculovirus transfer vector DNA into SF9 insect cells ([…]) along with 200 ng of linearized baculovirus plasmid DNA by the calcium phosphate method. See M. D. Summers and G. E. Smith, A Manual of Methods for Baculovirus Vectors and Insect Cell Culture Procedures, Texas Agric. Exp. Station Bull. 1555 (1987). Recombinant viruses were purified by three rounds of plaque purification and high titer (10E7-10E8 pfu/ml) stocks of virus were prepared. For large scale production, SF9 insect cells were infected in 10 liter fermentors (0.5×10^6 /ml) with the recombinant baculovirus stock such that the multiplicity of infection was 0.1. After 72 hours the cells were centrifuged and the cell pellet homogenized in Tris/Sucrose (50 mM: 25%, pH 8.0) containing 1% 3-[(3-cholamidopropyl)dimethylammonio]-1-propanesulfonate (CHAPS). The homogenate was centrifuged at 10,000×G for 30 minutes, and the resultant supernatant was stored at -80° C. before being assayed for COX activity.
(§5) b. Assay for COX I and COX II activity:
(§6) COX activity was assayed as PGE2 formed/μg protein/time using an ELISA to detect the prostaglandin released. CHAPS-solubilized insect cell membranes containing the appropriate COX enzyme were incubated in a potassium phosphate buffer (50 mM, pH 8.0) containing epinephrine, phenol, and heme with the addition of arachidonic acid (10 μM). Compounds were pre-incubated with the enzyme for 10-20 minutes prior to the addition of arachidonic acid. Any reaction between the arachidonic acid and the enzyme was stopped after ten minutes at 37° C./room temperature by transferring 40 μl of reaction mix into 160 μl ELISA buffer and 25 μM indomethacin. The PGE2 formed was measured by standard ELISA technology (Cayman Chemical).

In a further assay the target is T2, Human COX I (Homo sapiens, UniProt P23219).
T2 construct: A 2.0 kb fragment containing the coding region of either human or murine COX-I or human or murine COX-II; made in house; host or cells: SF9 insect cells (recombinant baculovirus, transfer vector pVL1393)
In words: COX I activity in vitro (PGE2 formed, ELISA; recombinant enzyme, baculovirus/SF9 insect cell membranes). It counts as biochemical. The note with it: arachidonic acid 10 μM; 10-20 min pre-incubation; pH 8.0; read-out: Human COX I ID50. The protocol: as §1, §2, §3, §4, §5, §6

In assay [1] the test system is rat paw edema (carrageenan). In words: Rat Carrageenan Foot Pad Edema Test. It counts as in vivo, Male Sprague-Dawley rats. The note with it: @ 30 mg/kg body weight, oral, 1 h before carrageenan; foot volume 3 h after injection; % decrease from control paw volume. On the procedure:
Rat Carrageenan Foot Pad Edema Test
The carrageenan foot edema test was performed with materials, reagents and procedures essentially as described by Winter, et al., (Proc. Soc. Exp. Biol. Med., 111, 544 (1962)). Male Sprague-Dawley rats were selected in each group so that the average body weight was as close as possible. Rats were fasted with free access to water for over sixteen hours prior to the test. The rats were dosed orally (1 mL) with compounds suspended in vehicle containing 0.5% methylcellulose and 0.025% surfactant, or with vehicle alone. One hour later a subplantar injection of 0.1 mL of 1% solution of carrageenan/sterile 0.9% saline was administered and the volume of the injected foot was measured with a displacement plethysmometer connected to a pressure transducer with a digital indicator. Three hours after the injection of the carrageenan, the volume of the foot was again measured. The average foot swelling in a group of drug-treated animals was compared with that of a group of placebo-treated animals and the percentage inhibition of edema was determined (Otterhess and Bliven, Laboratory Models for Testing NSAIDs, in Non-steroidal Anti-Inflammatory Drugs, (J. Lombardino, ed. 1985)).
On the technique in general: Carrageenan injected into the paw causes an acute inflammation.

T2 sequence (P23219 24-599): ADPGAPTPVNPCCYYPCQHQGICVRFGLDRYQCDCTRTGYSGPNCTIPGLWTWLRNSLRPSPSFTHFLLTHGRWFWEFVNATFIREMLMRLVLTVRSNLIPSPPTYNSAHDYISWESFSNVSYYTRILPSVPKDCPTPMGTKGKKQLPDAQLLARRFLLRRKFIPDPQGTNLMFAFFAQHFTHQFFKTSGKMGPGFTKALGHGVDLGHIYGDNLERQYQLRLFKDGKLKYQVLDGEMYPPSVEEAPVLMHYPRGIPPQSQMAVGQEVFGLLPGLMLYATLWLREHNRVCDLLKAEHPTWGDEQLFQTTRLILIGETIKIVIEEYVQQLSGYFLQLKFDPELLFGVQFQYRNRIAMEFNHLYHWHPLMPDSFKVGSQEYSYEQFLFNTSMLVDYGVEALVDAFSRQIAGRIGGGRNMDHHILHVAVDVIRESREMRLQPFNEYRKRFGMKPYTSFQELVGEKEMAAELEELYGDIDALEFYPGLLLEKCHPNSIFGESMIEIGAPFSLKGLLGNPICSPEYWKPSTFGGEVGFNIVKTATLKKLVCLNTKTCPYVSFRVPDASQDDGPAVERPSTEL

Turning to `COc1ccc2c(ccc3cnn(-c4ccc(S(N)(=O)=O)cc4)c32)c1` [Example 4, 4-[7-Methoxy-1H-benz[g]indazol-1-yl]benzenesulfonamide], the IC50 at Human COX II and on Human COX I was above 100 µM throughout.
As for `COc1ccc2c(ccc3c(C(F)(F)F)nn(-c4ccc(S(N)(=O)=O)cc4)c32)c1` [Example 3, 4-[7-Methoxy-3-(trifluoromethyl)-1H-benz[g]indazol-1-yl]benzenesulfonamide], the IC50 on Human COX II is below 0.1 µM; at Human COX I, above 100 µM.
As for `COc1ccc2c(ccc3c(C(F)F)nn(-c4ccc(S(N)(=O)=O)cc4)c32)c1Cl` [Example 1, 4-[6-Chloro-3-(difluoromethyl)-7-methoxy-1H-benz[g]indazol-1-yl]benzenesulfonamide], the results for the IC50 on Human COX II and on Human COX I were 1 µM and above 100 µM, respectively. In addition, in assay [1], the “% Inhibition (rat paw edema)” value is reported as 29%.
As for `COc1ccc2c(ccc3c(C(F)F)nn(-c4ccc(S(N)(=O)=O)cc4)c32)c1` [Example 2, 4-[3-(difluoromethyl)-7-methoxy-1H-benz[g]indazol-1-yl]benzenesulfonamide], the results for the IC50 at Human COX II and at Human COX I were below 0.1 µM and 0.8 µM, respectively. In assay [1], the “% Inhibition (rat paw edema)” value is listed as 24%.
Turning to `NS(=O)(=O)c1ccc(-n2nc(C(F)(F)F)c3ccc4ccccc4c32)cc1` [Example 5, 4-[3-(Trifluoromethyl)-1H-benz[g]indazol-1-yl]benzenesulfonamide], the IC50 at Human COX II and on Human COX I was above 100 µM throughout.
